Results taken from US20230382904A1, “SUBSTITUTED 4-([1,2,4]TRIAZOLO[1,5-a]PYRIDIN-6-YL)THIOPHENE-2-CARBOXAMIDE DERIVATIVES AND USE THEREOF” (The Johns Hopkins University, priority 2020, published 2023).

How the values were obtained:
DLK pathway activation = experiment: Mouse optic nerve crush, p-JUN immunoreactivity in RGC layer; assay type: in vivo; conditions: compared to RGCs treated with the vehicle
Experimental: Approximately three-month-old male C57BL/6 mice were anesthetized with 100/10 mg/kg of Ketamine/Xylazine followed by topical administration of proparacaine. Under the binocular operating scope, optic nerves were surgically exposed and crushed with Dumont N7 self-closing forceps 1-2 mm behind the globe. A small incision was made at the conjunctiva located at lateral orbit of eye globe using spring scissors. To avoid bleeding from the vasculature, minimum incision was continued until the optic nerve was exposed. After clean exposure, the optic nerve was grasped at approximately 1-2 mm from the globe for 3-7 seconds using the fine micro forceps. After careful removal of the micro forceps, the globe was relocated and Tobramycin was administered. Ten days after nerve crush, eyes were enucleated and fixed and surviving RGC was immunostained for SNCG, RBPMS and βIII-tubulin. The retinas were then imaged with a Nikon Eclipse TE2000-5 fluorescence microscope and Plan-fluor 40 Å˜/0.6 objective. […] RGCs were counted manually from each image. In a separate cohort of animals, optic nerves and retinas were sectioned and stained for phospho-JUN (an indicator of DLK pathway activation) 24 hours after optic nerve crush. Intravitreal injection, optic nerve crush, immunofluorescence, and RGC counting were performed in a masked fashion.

[1] = test system: primary murine retinal ganglion cells; experiment: Retinal ganglion cell (RGC) viability assay; assay type: cell-based; conditions: among compounds 4, 19, 94 and 112
Experimental: The RGC assay detected the viability of primary murine retinal ganglion cells via Cell Titer Glo (Promega), using a previously described assay (Proc. Natl. Acad. Sci. USA. 2013, 110(10), 4045-50), which is incorporated herein by reference in its entirety.
RGCs were freshly isolated from approximately P2 murine retinas by immunopanning using mouse anti-CD90 coated plates. Cells are seeded into poly-D-lysine or laminin coated plates in Neurobasal medium supplemented by 1% Pen/Strep (Gibco 15140-122), 0.01 mg/ml insulin, 1 mM sodium pyruvate, 1% of 100× Sato (400 mg transferrin, 400 mg BSA, 0.25 mg progesterone, 64 mg putrescine, 160 μg sodium selenite in 40 mL Neurobasal medium), 0.04 μg/ml triiodo-thyronine, 2 mM L-glutamine, 0.05 mg/ml N-acetyl cysteine, 10 μM forskolin, 2% 50× B27 (Gibco 17504-044).
For the assay 500-2000 cells per well in a volume of 40 μl were used (384 MTP format). After 72 hours 20 μl Cell Titer Glo reagent was added and viability is measured via luminescent quantitation of ATP. The amount of ATP was directly proportional to the number of cells present in culture.

[2] = Mouse light damage model (serial OCT and serial ERG); assay type: in vivo; conditions: versus vehicle
Experimental: After two weeks (14 days) acclimation in dim light (under 10-30 lux), female BALBc/J (10-12 weeks) were dark-adapted for 24 hrs. All compound injections were done in darkness with din-red light as needed. All mice were placed in light box after applying dilator (tropicamide or phenylephirine) topically. Then light was left on for 4 h with ˜3000 lux followed by dark recovery at the same condition with dark adaptation until any experimental procedure is ready or being placed in dim light condition (under 10-30 lux). Mice were then followed for 3-7 days with OCT, ERG, functional testing, and/or immunohistochemical analysis.

For `CC[C@H](NC(=O)c1cc(-c2cc(C(=O)N[C@@H](C)CC)c3nc(N)nn3c2)cs1)c1ccc(F)cc1` [Compound 112, 2-Amino-N-[(2S)-butan-2-yl]-6-(5-{[(1S)-1-(4-fluorophenyl)propyl]carbamoyl}thiophen-3-yl)[1,2,4]triazolo[1,5-a]pyridine-8-carboxamide], the “p-cJun intensity in the RGCs” value (DLK pathway activation) was “decreased”, the “activity in RGC assay” value [1] was “most active” and the “a wave amplitude in photoreceptors” value ([2]; serial ERG) was “higher”. For the same compound, the “b wave amplitude in inner retinal cells” value ([2]; serial ERG) was “higher” and the “outer retinal layer (ORL) thickness” value ([2]; serial OCT) was “higher”.
